Measured values: US11607464B2, “Compositions and methods for the treatment and imaging of cancer” (BOARD OF REGENTS OF THE UNIVERSITY OF NEBRASKA, priority 2018, dated 2023)

Legend:
NCI 60 cancer cells = experiment: NCI 60 cell five-dose screen; format: cell-based, human; settings: NCI 60 cell five-dose screen, FIG. 5
Excerpt: FIG. 5 provides the concentrations (nanomole/liter) required to inhibit by 50% growth of cancer cells (GI50) as measured with the National Cancer Institute (NCI) 60 cell five-dose screen assay.
The methodology and data analyses are described in detail at: dtp.cancer.gov/discovery_development/nci-60/methodology.

[1] = tested on: SK-N-SH neuroblastoma, BE(2)-C neuroblastoma, and U-87 MG glioblastoma; experiment: Survival of neuroblastoma and glioblastoma cells treated with ^131I-4; format: cell-based, human; settings: 0.185 MBq/mL and 0.35 MBq/mL, FIGS. 9A-9C
Protocol: FIGS. 9A-9C provide images of SK-N-SH neuroblastoma (FIG. 9A), BE(2)-C neuroblastoma (FIG. 9B), and U-87 MG glioblastoma (FIG. 9C) untreated or treated with compound ^131I-4 at 0.185 MBq/mL and 0.35 MBq/mL. Graphs of the cell uptake and clonogenic survival of the cells are also provided.
The survival of human neuroblastoma and glioblastoma cells either left untreated or treated with compound ^131I-4 at 0.185 MBq/mL and 0.35 MBq/mL was determined. The cell uptake and clonogenic survival of SK-N-SH neuroblastoma, BE(2)-C neuroblastoma, and U-87 MG glioblastoma was also determined (FIGS. 9A-9C).

U-87 MG xenograft = U-87 MG xenograft therapy study in athymic mice; format: in vivo, athymic Ncr nu/nu mice
Protocol: (§1) U-87MG cells were injected subcutaneously (SQ) in the dorsal area of the female and male 8-weeks old athymic Ncr nu/nu mice (n=10 per group). When tumor volume reached ˜150 mm^3 mice were randomized into treatment group and “sham” injected control group. The average tumor volumes on day 0 were 177±55 mm^3 and 141±25 mm^3 in the treatment group and untreated controls, respectively. Therapy mice received ^131I-4 at an average dose of 14.5±2.3 MBq/mouse. Tumor volumes and body weights were measured three times per week. When one tumor in control mice exceeded the volume of 3000 mm^3 (i.e., 10% of the body weight), the experiment was terminated. Necropsy was performed. Tumor weights and tumor-associated radioactivity were determined. Blood was collected and hemoglobin and hematocrit values were measured. Tumors sections were also analyzed by macroautoradiography.
U-87MG cells were injected subcutaneously (SQ) in the dorsal area of the female and male 8-weeks old athymic Ncr nu/nu mice (n=10 per group). Therapy mice received ^131I-4 at an average dose of 14.5±2.3 MBq/mouse and tumor volumes and body weights were measured three times per week.

SK-N-SH cells = experiment: Colony-forming assay, radiotoxicity of ^131I-radiolabeled drug; format: cell-based, human; settings: for surviving fraction: 0.35 MBq/mL
Protocol: (§2) The cell uptake was tested as a function of the radioactive concentration and time of exposure. With each treatment group, triplicate flasks of controls cells in medium without the radioactive drug were grown and harvested alongside treated cells. Aliquots of the radioactive medium were reserved for gamma counting to assess the initial radioactive concentration. Each treatment was tested in triplicate in at least two independent experiments. Groups of treated cells were cultured in radioactive medium for 1 hour, 24 hours, 48 hours, and 72 hours and either harvested at these times or the radioactive medium was removed and replaced with the appropriate nonradioactive medium and then flasks were returned to the incubator for additional 24 hours. Radioactive medium was collected for radioactivity determination, monolayers were washed with ice-cold PBS. Cells used in the subcellular distribution experiments were harvested by scarping and cell numbers were determined. The subcellular distribution of radioactivity was determined as described before using NE-PER™ nuclear and cytoplasmic extraction reagents (Pierce Biotechnology, Rockford, Ill.).
(§3) Alongside all treatment groups, which included: drug alone (n=4), 4 Gy XRT alone (n=4), and drug+XRT (n=4), quadruplicate flasks of controls cells in medium containing DMSO were grown and harvested under identical culture conditions. Each treatment was tested in at least two independent experiments. The final concentration of DMSO was maintained at 0.5% in all flasks including controls. Cells grown in monolayers (50%-60% confluent) were irradiated at the dose of 4 Gy delivered at the dose rate of 1.36 Gy/minute in a Mark I 68A irradiator (J. L. Shepherd & Associates, San Fernando, Calif.). At designated times after treatment, cells were harvested, their numbers determined and plated at 200 and 500 live cells in duplicate or quadruplicate T25 flasks per each treatment. Cells were left undisturbed for ˜7 days after which time fresh medium was added and colonies were allowed to grow for up to 3 weeks. Colonies were washed with PBS, fixed with methanol, and stained with crystal violet. Briefly, colonies were washed with 5 mL ice-cold PBS, followed by 5 mL PBS/methanol (1:1; v/v), and fixed in 5 mL methanol for 10 minutes. Methanol was removed and flasks were left open to dry for a few hours. Crystal violet (3 mL; 0.25% in 1:1 PBS/methanol) was added to each flask to stain cells. After approximately 10 minutes, the dye was removed, flasks were rinsed with tap water followed by distilled water and were left to dry. Colonies were counted by two independent observers using the ImageJ software.

BE(2)-C cells = experiment: as above; format: cell-based, human; settings: for surviving fraction: BE(2)-C
Protocol: as §2, §3

[2] = Hematocrit and hemoglobin in treated mice; format: in vivo, athymic Ncr nu/nu mice; settings: terminal necropsy after therapy
Protocol: as §1
The average and median weights of tumor extirpated from untreated control mice (NT) and ^131I-4 treated mice at the terminal necropsy after the therapy was also determined (FIG. 10A). Hematocrit and hemoglobin values in ^131I-4-treated and control (NT) mice were also determined (FIGS. 10B and 10C). FIGS. 10D and 10E also show macroautoradiography of sections of two tumors extirpated.

BE(2)-C = experiment: Extracellular and intracellular D10 of cells exposed to ^131I-4; format: cell-based, human; settings: exposed for 48 hours
Protocol: as §2
(§4) The cell uptake of ^131I-4 was tested as a function of the radioactive concentration and time of exposure. Groups of treated cells—BE(2)-C (neuroblastoma), SK-N-SH cells (neuroblastoma), and U-87 MG (glioblastoma)—were cultured in radioactive medium for 1 hour, 24 hours, 48 hours, and 72 hours.

SK-N-SH = experiment: as above; format: cell-based, human; settings: exposed for 48 hours
Protocol: as §2, §4

U-87MG = experiment: as above; format: cell-based, human; settings: exposed for 48 hours
Protocol: as §2, §4

[3] = Stability in human serum (HPLC); format: in vitro ADME
Protocol: 4 (370 KBq-740 kBq) in 20 μL 25% EtOH/PB (10 mM PB, pH 6.1) was added to the solution of human serum (1980 μL). The mixture was briefly vortexed and kept up to 19 hours at ambient temperature or in the cell culture incubator (37° C., 5% CO2). At selected times, a 0.5-mL aliquot of the incubated mixture was withdrawn and analyzed by HPLC.
An aliquot of the incubation mixture (0.5 mL) was treated with MeCN (0.5 mL) to precipitate proteins, vortexed and centrifuged (2,000 rpm, 15 minutes). Aliquots of the supernatant (500 μL) were acidified to pH˜6 with 0.05 M TFA (2-8 μL). The excess of MeCN was evaporated with a stream of nitrogen and 100 μL water added. This mixture was passed through a 0.2-μm filter and samples (˜100 μL, 62.5 kBq-130 kBq) were injected on HPLC system.
The HPLC analyses proceeded on Luna C N (5μ, 4.6×250 mm) column. Eluent: solvent A potassium phosphate buffer (10 mM, pH 6.1), solvent B EtOH; all samples were eluted at 0.8 mL/minute, initially with a gradient of EtOH from 30% to 70% for 30 minutes, then from 70% to 95% over the next 15 minutes with detection of radioactivity and UV at 280 nm.

COC(=O)Nc1nc2ccc(C(=O)c3ccccc3)cc2[nH]1 [Compound 1, methyl N-(6-benzoyl-1H-benzimidazol-2-yl)carbamate]
GI50, concentration to inhibit growth of cancer cells by 50% (NCI 60 cancer cells): nanomolar levels

COC(=O)Nc1nc2cc(C(=O)c3cccc([131I])c3)ccc2[nH]1 [^131I-4, Methyl N-[5-(3′-[^125/131I]iodobenzoyl)-1H-benzimidazol-2-yl]carbamate]
cytotoxicity, cell survival [1]: cytotoxic to neuroblastoma and glioblastoma cells | tumor growth compared to untreated control mice (U-87 MG xenograft; 14.5±2.3 MBq/mouse): dramatically decreases tumor growth | xenograft volume median (U-87 MG xenograft; day 0 after treatment): 122 mm^3 | xenograft volume avg (std err) (U-87 MG xenograft; day 0 after treatment, 14.5±2.3 MBq/mouse): 177 (55) mm^3 | xenograft volume median (U-87 MG xenograft; day 4 after treatment): 169 mm^3 | xenograft volume avg (std err) (U-87 MG xenograft; day 4 after treatment, 14.5±2.3 MBq/mouse): 251 (88) mm^3 | xenograft volume median (U-87 MG xenograft; day 7 after treatment): 281 mm^3 | xenograft volume avg (std err) (U-87 MG xenograft; day 7 after treatment, 14.5±2.3 MBq/mouse): 277 (76) mm^3 | xenograft volume median (U-87 MG xenograft; day 9 after treatment): 292 mm^3 | xenograft volume avg (std err) (U-87 MG xenograft; day 9 after treatment, 14.5±2.3 MBq/mouse): 456 (165) mm^3 | xenograft volume median (U-87 MG xenograft; day 11 after treatment): 320 mm^3 | xenograft volume avg (std err) (U-87 MG xenograft; day 11 after treatment, 14.5±2.3 MBq/mouse): 444 (163) mm^3 | tumor infiltration (macroautoradiography) (U-87 MG xenograft; sections of extirpated tumors): infiltrates tumors | surviving fraction (SK-N-SH cells; 24 hours): 0.68±0.069 | surviving fraction (SK-N-SH cells; 48 hours): 0.08±0.04 | colonies (SK-N-SH cells; 72 hour exposure): no colonies | surviving fraction (BE(2)-C cells; 24 hour exposure to 0.35 MBq): 0.51±0.067 | surviving fraction (BE(2)-C cells; 48 hour exposure to 0.35 MBq): 0.06±0.02 | surviving fraction (BE(2)-C cells; 72 hour exposure to 0.29 MBq): 0.010±0.004 | survivors (BE(2)-C cells; at higher concentrations): no survivors | adverse reactions in the blood (hematocrit, hemoglobin) [2]: adverse reactions in the blood were not observed | D10 extracellular (BE(2)-C): 0.176 MBq/mL | D10 intracellular (BE(2)-C): 3,010 (395) decays/cell | D10 intracellular (BE(2)-C; value (std err)): 0.36 (0.05) cpm/cell | D10 extracellular (SK-N-SH): 0.410 MBq/mL | D10 intracellular (SK-N-SH): 7,620 (530) decays/cell | D10 intracellular (SK-N-SH; value (std err)): 0.82 (0.09) cpm/cell | D10 extracellular (U-87MG): 0.740 MBq/mL | D10 intracellular (U-87MG): 14,760 (2,550) decays/cell | D10 intracellular (U-87MG; value (std err)): 1.73 (0.34) cpm/cell

COC(=O)Nc1nc2cc(C(=O)c3cccc([131I])c3)ccc2[nH]1 [^125I-4, Methyl N-[5-(3′-[^125/131I]iodobenzoyl)-1H-benzimidazol-2-yl]carbamate]
stability in human serum, radioactive HPLC trace ([3]; 5 hours, 20° C.): exclusively non-degraded | stability in human serum, radioactive HPLC trace ([3]; 17 hours, 37° C.): exclusively non-degraded | stability in human serum ([3]; up to 19 hours): stable
